# According to patent US7342028B2, “Medical use for tachykinin antagonists” (Glaxo Group Limited, priority 1991, dated 2008):
# How the values were obtained:
# [1] = system: emesis induced by morphine; assay: morphine-induced emesis, test compound given simultaneously with the emetogen; type: in vivo, ferret; conditions: compound 3 mg/kg i.p. simultaneously with morphine 0.5 mg/kg s.c.
# [2] = system: emesis induced by ipecacuanha; assay: ipecacuanha-induced emesis, test compound given simultaneously with the emetogen; type: in vivo, ferret; conditions: compound 3 mg/kg i.p. simultaneously with ipecacuanha 2 mg/kg p.o.
# [3] = system: cisplatin-induced emesis; assay: cisplatin-induced emesis in the ferret; type: in vivo; conditions: for anti-emetic activity: inhibition of cisplatin-induced emesis: cisplatin 200 mg/m^2 i.p., compound 3 mg/kg i.p. at first retch
# Experimental: In this model of emesis the onset of retching and vomiting occurs approximately 1 hour after the administration of cisplatin (200 mg/m^2 i.p.). At the first retch in response to cisplatin, the test compound was administered (e.g. i.p., p.o., i.v., s.c., i.c.v.) and its effect on emesis determined by comparison with appropriate controls (e.g. water).
# [4] = system: emesis induced by cyclophosphamide; assay: cyclophosphamide-induced emesis, test compound given simultaneously with the emetogen; type: in vivo, ferret; conditions: compound 3 mg/kg i.p. simultaneously with cyclophosphamide 200 mg/kg i.p.
# [5] = system: emesis induced by copper sulphate; assay: copper sulphate-induced emesis, test compound given simultaneously with the emetogen; type: in vivo, ferret; conditions: compound 3 mg/kg i.p. simultaneously with copper sulphate 40 mg/kg i.p.
# [6] = target: NK1 receptor (Homo sapiens, UniProt P25103); assay: NK1 receptor antagonist activity (enantiomer comparison); conditions: relative to the (2S,3S) enantiomer
# Sequence of NK1 receptor (P25103 whole entry, species assumed): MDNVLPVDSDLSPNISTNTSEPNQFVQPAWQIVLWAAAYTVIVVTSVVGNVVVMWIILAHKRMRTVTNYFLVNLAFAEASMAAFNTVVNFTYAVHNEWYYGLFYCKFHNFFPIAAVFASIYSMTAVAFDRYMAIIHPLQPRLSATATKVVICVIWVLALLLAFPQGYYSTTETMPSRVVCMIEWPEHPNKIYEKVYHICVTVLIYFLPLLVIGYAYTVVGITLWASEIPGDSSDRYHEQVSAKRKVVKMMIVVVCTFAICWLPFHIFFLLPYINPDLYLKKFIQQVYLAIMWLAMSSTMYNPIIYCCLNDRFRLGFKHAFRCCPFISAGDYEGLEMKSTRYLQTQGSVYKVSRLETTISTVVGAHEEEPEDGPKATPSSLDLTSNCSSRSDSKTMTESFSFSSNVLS
smiles,measurement,setting,value
COc1ccccc1CN[C@H]1CCCN[C@H]1c1ccccc1 (racemic) [(±) cis-3-(2-methoxybenzylamino)-2-phenyl piperidine],anti-emetic activity against morphine,[1],exhibited anti-emetic activity
same,anti-emetic activity against ipecacuanha,[2],exhibited anti-emetic activity
same,anti-emetic activity: inhibition of cisplatin-induced emesis,[3],exhibited anti-emetic activity
same,anti-emetic activity against cyclophosphamide,[4],exhibited anti-emetic activity
same,anti-emetic activity against copper sulphate,[5],exhibited anti-emetic activity
"COc1ccccc1CN[C@H]1CCCN[C@H]1c1ccccc1 (relative stereo) [(2R,3R) enantiomer, cis-3-(2-methoxybenzylamino)-2-phenyl piperidine]",anti-emetic activity: inhibition of cisplatin-induced emesis,[3]; 3 mg/kg,inactive
same,"fold less active as an NK1 receptor antagonist than the (2S,3S) enantiomer",[6],1000 fold
"COc1ccccc1CN[C@H]1CCCN[C@H]1c1ccccc1 (relative stereo) [(2S,3S) enantiomer, cis-3-(2-methoxybenzylamino)-2-phenyl piperidine]",anti-emetic activity: inhibition of cisplatin-induced emesis,[3]; 3 mg/kg,inhibited
"COc1ccccc1CNC1C2CCN(C2)C1C(c1ccccc1)c1ccccc1 (stereo not drawn) [Example 1, (exo,exo)-2-(Diphenylmethyl)-N-[(2-methoxyphenyl)methyl]-1-azabicyclo[2.2.1]heptan-3-amine]",inhibition of cisplatin-induced emesis,[3]; compound 5 mg/kg i.p.,inhibited
